According to PubChem BioAssay (NCI):
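Dose response: 5 concentrations. Exposure: 48 h. Format: 96-well plates. Endpoint: linear interpolation; highest concentration if not reached. TGI is the concentration that stops growth completely.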

Assays:
Assay in all cases: growth of human tumour cells (NCI), 48 h
OVCAR-4 ovarian = test system: OVCAR-4 ovarian
HL-60(TB) leukemia = test system: HL-60(TB) leukemia
HOP-62 NSCLC = test system: HOP-62 NSCLC
EKVX NSCLC = test system: EKVX NSCLC
TK-10 renal = test system: TK-10 renal
NCI/ADR-RES ovarian = test system: NCI/ADR-RES ovarian
HCT-116 colon = test system: HCT-116 colon
NCI-H460 lung = test system: NCI-H460 lung
A549 NSCLC = test system: A549 NSCLC
SK-MEL-28 melanoma = test system: SK-MEL-28 melanoma
BT-549 breast = test system: BT-549 breast
T-47D breast = test system: T-47D breast
CCRF-CEM leukemia = test system: CCRF-CEM leukemia
UO-31 renal = test system: UO-31 renal
SF-539 CNS = test system: SF-539 CNS
SK-MEL-5 melanoma = test system: SK-MEL-5 melanoma
SN12C renal = test system: SN12C renal
SNB-19 CNS = test system: SNB-19 CNS
SK-OV-3 ovarian = test system: SK-OV-3 ovarian
K-562 leukemia = test system: K-562 leukemia
UACC-257 melanoma = test system: UACC-257 melanoma
MDA-MB-435 = test system: MDA-MB-435
KM12 colon = test system: KM12 colon
OVCAR-8 ovarian = test system: OVCAR-8 ovarian
SF-295 CNS = test system: SF-295 CNS
MCF7 breast = test system: MCF7 breast
SNB-75 CNS = test system: SNB-75 CNS
U251 CNS = test system: U251 CNS
RPMI-8226 leukemia = test system: RPMI-8226 leukemia
MDA-MB-231 breast = test system: MDA-MB-231 breast
MOLT-4 leukemia = test system: MOLT-4 leukemia
HT29 colon = test system: HT29 colon
PC-3 prostate = test system: PC-3 prostate
RXF 393 renal = test system: RXF 393 renal
MALME-3M melanoma = test system: MALME-3M melanoma
ACHN renal = test system: ACHN renal
IGROV1 ovarian = test system: IGROV1 ovarian
SR leukemia = test system: SR leukemia
COLO 205 colon = test system: COLO 205 colon
MDA-N = test system: MDA-N
SW-620 colon = test system: SW-620 colon
OVCAR-5 ovarian = test system: OVCAR-5 ovarian
LOX IMVI melanoma = test system: LOX IMVI melanoma
SF-268 CNS = test system: SF-268 CNS
HCT-15 colon = test system: HCT-15 colon
NCI-H23 lung = test system: NCI-H23 lung
DU-145 prostate = test system: DU-145 prostate
HS 578T breast = test system: HS 578T breast
CAKI-1 renal = test system: CAKI-1 renal
M14 melanoma = test system: M14 melanoma
UACC-62 melanoma = test system: UACC-62 melanoma
OVCAR-3 ovarian = test system: OVCAR-3 ovarian

Compound `Cc1ccnn1CCc1ccc(Cl)cc1Cl` has a TGI (OVCAR-4 ovarian) of over 100 µM, a TGI (HL-60(TB) leukemia) of 42.4 µM and a TGI (HOP-62 NSCLC) of 32.5 µM. For the same compound, the TGI (EKVX NSCLC) was 20.7 µM, the TGI (TK-10 renal) was 48.1 µM and the TGI (NCI/ADR-RES ovarian) was over 100 µM. For the same compound, the TGI (HCT-116 colon) was over 100 µM, the TGI (NCI-H460 lung) was over 100 µM and the TGI (A549 NSCLC) was over 100 µM. The TGI (SK-MEL-28 melanoma) was over 100 µM, the TGI (BT-549 breast) was 31.3 µM and the TGI (T-47D breast) was over 100 µM. For the same compound, the TGI (CCRF-CEM leukemia) was over 100 µM, the TGI (UO-31 renal) was 46.3 µM and the TGI (SF-539 CNS) was 49.6 µM. The TGI (SK-MEL-5 melanoma) was 37.7 µM, the TGI (SN12C renal) was over 100 µM and the TGI (SNB-19 CNS) was over 100 µM. For the same compound, the TGI (SK-OV-3 ovarian) was over 100 µM, the TGI (K-562 leukemia) was over 100 µM and the TGI (UACC-257 melanoma) was over 100 µM. It also gave a TGI (MDA-MB-435) of over 100 µM, a TGI (KM12 colon) of over 100 µM and a TGI (OVCAR-8 ovarian) of over 100 µM. It also gave a TGI (SF-295 CNS) of 52.9 µM, a TGI (MCF7 breast) of over 100 µM and a TGI (SNB-75 CNS) of over 100 µM. It also gave a TGI (U251 CNS) of over 100 µM, a TGI (RPMI-8226 leukemia) of 38.2 µM and a TGI (MDA-MB-231 breast) of over 100 µM. The TGI (MOLT-4 leukemia) was 56.6 µM, the TGI (HT29 colon) was over 100 µM and the TGI (PC-3 prostate) was over 100 µM. For the same compound, the TGI (RXF 393 renal) was 82.9 µM, the TGI (MALME-3M melanoma) was over 100 µM and the TGI (ACHN renal) was over 100 µM. The TGI (IGROV1 ovarian) was over 100 µM, the TGI (SR leukemia) was over 100 µM and the TGI (COLO 205 colon) was over 100 µM. For the same compound, the TGI (MDA-N) was over 100 µM, the TGI (SW-620 colon) was over 100 µM and the TGI (OVCAR-5 ovarian) was over 100 µM. For the same compound, the TGI (LOX IMVI melanoma) was over 100 µM, the TGI (SF-268 CNS) was over 100 µM and the TGI (HCT-15 colon) was over 100 µM. For the same compound, the TGI (NCI-H23 lung) was over 100 µM, the TGI (DU-145 prostate) was over 100 µM and the TGI (HS 578T breast) was over 100 µM. The TGI (CAKI-1 renal) was over 100 µM, the TGI (M14 melanoma) was over 100 µM and the TGI (UACC-62 melanoma) was 29.1 µM. It also gave a TGI (OVCAR-3 ovarian) of 45.3 µM.
